The experiment addresses T1, LRRK2(G2019S mutation, GST-LRRK2(amino acids 970-2527)) (Homo sapiens, UniProt Q5S007, G2019S).
T1 construct: GST-LRRK2(amino acids 970-2527); GST (N); purchased Life Technologies Corporation
The experiment in a line: LRRK2 Km ATP LanthaScreen Assay. The format is biochemical. The method, then:
Unless otherwise noted, all LRRK2 IC50 data presented in tables refers to the LRRK2 Km ATP LanthaScreen™ Assay that is described in the Biological Assay section.
The data presented for the 5 mM and Km ATP LanthaScreen™ Assay represents mean IC50 values based on several test results and may have reasonable. deviations depending on the specific conditions and reagents used. Reagents for the LRRK2 5 mM and Km ATP LanthaScreen™ Assay were purchased from Life Technologies Corporation.
Results are analysed using Assay Data Analyzer.

The mark [1] stands for this setting: Km ATP LanthaScreen Assay, LRRK2 G2019S, mean IC50 values, read-out: LRRK2 IC50.
The mark [2] stands for this setting: Km ATP LanthaScreen Assay; LRRK2 G2019S; mean IC50 values; Examples 185-215; read-out: LRRK2 IC5).
Setting [3] is: Km ATP LanthaScreen, mean IC50 of several tests, read-out: LRRK2 IC50.

Each structure is given as a SMILES string. Where two headings read alike, the source gives them in different places.

T1 sequence (Q5S007 970-2527 G2019S): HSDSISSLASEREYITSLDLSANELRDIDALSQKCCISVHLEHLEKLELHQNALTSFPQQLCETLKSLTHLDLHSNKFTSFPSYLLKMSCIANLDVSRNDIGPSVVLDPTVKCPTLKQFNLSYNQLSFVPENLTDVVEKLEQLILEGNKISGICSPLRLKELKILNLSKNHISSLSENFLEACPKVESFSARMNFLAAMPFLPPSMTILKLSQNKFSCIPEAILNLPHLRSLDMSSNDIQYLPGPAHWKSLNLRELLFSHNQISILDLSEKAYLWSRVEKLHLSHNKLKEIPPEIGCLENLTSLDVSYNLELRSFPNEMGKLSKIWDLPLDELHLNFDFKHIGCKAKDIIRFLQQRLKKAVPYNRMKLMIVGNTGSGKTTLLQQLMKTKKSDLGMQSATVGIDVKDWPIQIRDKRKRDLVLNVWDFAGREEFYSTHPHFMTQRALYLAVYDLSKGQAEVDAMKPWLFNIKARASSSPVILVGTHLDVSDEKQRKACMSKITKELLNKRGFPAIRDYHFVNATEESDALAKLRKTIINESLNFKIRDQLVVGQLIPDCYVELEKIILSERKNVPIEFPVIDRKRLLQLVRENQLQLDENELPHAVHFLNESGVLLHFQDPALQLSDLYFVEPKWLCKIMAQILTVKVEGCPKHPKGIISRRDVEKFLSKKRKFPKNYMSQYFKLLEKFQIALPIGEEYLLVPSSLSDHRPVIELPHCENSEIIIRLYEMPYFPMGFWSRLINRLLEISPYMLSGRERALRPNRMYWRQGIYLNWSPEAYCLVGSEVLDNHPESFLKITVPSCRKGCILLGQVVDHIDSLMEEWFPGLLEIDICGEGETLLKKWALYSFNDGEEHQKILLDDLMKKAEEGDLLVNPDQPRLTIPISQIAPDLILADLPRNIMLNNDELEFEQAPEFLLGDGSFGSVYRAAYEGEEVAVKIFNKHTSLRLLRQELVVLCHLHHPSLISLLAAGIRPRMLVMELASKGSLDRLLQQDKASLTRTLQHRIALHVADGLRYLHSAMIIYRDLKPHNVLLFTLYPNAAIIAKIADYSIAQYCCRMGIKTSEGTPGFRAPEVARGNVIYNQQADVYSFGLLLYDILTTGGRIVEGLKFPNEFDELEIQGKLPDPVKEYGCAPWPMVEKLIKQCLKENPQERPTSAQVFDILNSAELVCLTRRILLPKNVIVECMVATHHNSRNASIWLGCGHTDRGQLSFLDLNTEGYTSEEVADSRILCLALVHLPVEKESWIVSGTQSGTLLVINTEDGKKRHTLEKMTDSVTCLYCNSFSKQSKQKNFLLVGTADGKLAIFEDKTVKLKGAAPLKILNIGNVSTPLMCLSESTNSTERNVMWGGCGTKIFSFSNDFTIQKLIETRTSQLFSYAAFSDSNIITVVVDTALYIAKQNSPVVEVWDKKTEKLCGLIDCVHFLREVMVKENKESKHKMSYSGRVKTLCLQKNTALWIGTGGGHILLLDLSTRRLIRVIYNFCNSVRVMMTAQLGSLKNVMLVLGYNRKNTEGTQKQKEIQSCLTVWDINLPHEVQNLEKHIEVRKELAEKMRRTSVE

Consider `c1ccc2c(-c3ccnc(NC4CCCOC4)c3)n[nH]c2c1` (stereo not drawn) [Example 74], for which the IC50 under setting [1] stood at 57 nM.
Regarding `CC(C)Oc1ccc2[nH]nc(-c3ccnc(N4CC[S+]([O-])CC4)c3)c2c1` [Example 191], the IC50 under setting [2] amounted to 7.4 nM.
Regarding `COc1cnccc1-c1ccc2[nH]nc(-c3ccnc(N4CCOCC4)c3)c2c1` [Example 102], under setting [1], the IC50 is 0.2 nM.
On to `CCCOc1ccc2[nH]nc(-c3ccnc(N4CCN(C)C(=O)C4)c3)c2c1` [Example 293], for which, under setting [3], the IC50 was found to be 15 nM.
As to `Cn1cc(-c2ccc3[nH]nc(-c4ccnc(N5CCOC6(CC6)C5)c4)c3c2)cn1` [Example 379], the IC50 under setting [3] turned out to be 4.2 nM.
For the compound `CC(C)Oc1ccc2[nH]nc(-c3ccnc(NS(C)(=O)=O)c3)c2c1` [Example 395], the IC50 under setting [3] was 20 nM.
`CCOc1ccc2[nH]nc(-c3ccnc(N4CCC(C#N)(c5ccccc5)C4)c3)c2c1` (stereo not drawn) [Example 225]: under setting [1], the IC50 worked out at 16.3 nM.
`CCOc1ccc2[nH]nc(-c3ccnc(N4CCC(F)(F)C4)c3)c2c1` [Example 223]: the IC50 under setting [1] came out at 13.5 nM.
`CC(C)Oc1ccc2[nH]nc(-c3ccnc(N4CCc5ccccc5C4)c3)c2c1` [Example 139]: the IC50 under setting [1] is 18.1 nM.
Turning to `CO[C@H]1CN(c2cc(-c3n[nH]c4ccc(OC(C)C)cc34)ccn2)C[C@@H]1O` [Example 172], the IC50 under setting [1] was 27.1 nM.
With `Cc1nn(C)cc1-c1ccc2[nH]nc(-c3ccnc(N4CCOCC4)c3)c2c1` [Example 318], under setting [3], the IC50 was found to be 17 nM.
As to `CC(C)Oc1ccc2[nH]nc(-c3ccnc(NC(=O)c4cc(F)cc(F)c4)c3)c2c1` [Example 169], the IC50 under setting [1] is 169 nM.
Take `Cc1nonc1CC(=O)Nc1cc(-c2n[nH]c3ccc(OC(C)C)cc23)ccn1` [Example 161]: under setting [1], the IC50 amounted to 32 nM.
Take `OCCOc1ccc2[nH]nc(-c3ccnc(N4CCOCC4)c3)c2c1` [Example 363]: the IC50 under setting [3] was determined as 9.3 nM.
On to `Cc1ncc(-c2ccc3[nH]nc(-c4ccnc(N5CCOCC5)c4)c3c2)n1C` [Example 317], for which the IC50 under setting [3] turned out to be 1.4 nM.
Same read-out and setting: for `CS(=O)(=O)c1cccc(Nc2ccc3[nH]nc(-c4ccnc(N5CCOCC5)c4)c3c2)c1` [Example 108] the value was 9.3 nM; for `COc1ccnc(F)c1-c1ccc2[nH]nc(-c3ccnc(N4CCN(C(C)=O)CC4)c3)c2c1` [Example 367], under 0.6 nM; for `COc1ccc(-c2ccc3[nH]nc(-c4ccnc(N5CCOCC5)c4)c3c2)cn1` [Ex 329], 14 nM.
For the compound `CN(C)CC1(O)CCN(c2cc(-c3n[nH]c4ccccc34)ccn2)CC1` [Example 56], the IC50 under setting [1] was 25 nM.
On to `FC(F)=CCCOc1ccc2[nH]nc(-c3ccnc(N4CCOCC4)c3)c2c1` [Example 81], for which the IC50 under setting [1] is 4.8 nM.
In the case of `c1cc(-c2n[nH]c3ccc(-c4cnco4)cc23)cc(N2CCOCC2)n1` [Example 322], under setting [3], the IC50 amounted to 0.66 nM.
For the compound `O=C1CCC(CNc2cc(-c3n[nH]c4ccccc34)ccn2)N1` (stereo not drawn) [Example 44], under setting [1], the IC50 amounted to 26 nM.
On to `CC(C)Oc1ccc2[nH]nc(-c3ccnc(N4CC(n5cccn5)C4)c3)c2c1` [Example 190], for which the IC50 under setting [2] turned out to be 13.2 nM.
Consider `CC(C)Oc1ccc2[nH]nc(-c3ccnc(NC(=O)Cc4ccsc4)c3)c2c1` [Example 157], for which, under setting [1], the IC50 was determined as 34.4 nM.
As to `CS(=O)(=O)C1CN(c2cc(-c3n[nH]c4ccc(OC(F)(F)F)cc34)ccn2)C1` [Example 236], the IC50 under setting [1] worked out at 106 nM.
For the compound `CC(C)Oc1ccc2[nH]nc(-c3ccnc(N4CCC(c5ccncc5)C4)c3)c2c1` (stereo not drawn) [Example 175], under setting [1], the IC50 amounted to 2.2 nM.
As for `CC(C)Oc1ccc2[nH]nc(-c3ccnc(N4CCCN(S(C)(=O)=O)CC4)c3)c2c1` [Example 189], under setting [2], the IC50 came out at 22.4 nM.
Turning to `CS(=O)(=O)c1cccc(Nc2ccc3[nH]nc(-c4ccnc(NC5CC5)c4)c3c2)c1` [Example 112], the IC50 under setting [1] was 11 nM.
On to `CC(C)Oc1ccc2[nH]nc(-c3ccnc(N4CCS(=O)(=O)c5ccccc5C4)c3)c2c1` [Example 186], for which, under setting [2], the IC50 was 154 nM.
On to `FC1CCN(CCCNc2cc(-c3n[nH]c4ccccc34)ccn2)C1` (stereo not drawn) [Example 62], for which the IC50 under setting [1] came out at 46 nM.
Same read-out and setting: for `CCOc1ccc2[nH]nc(-c3ccnc(N4CCN(C)C(=O)C4)c3)c2c1` [Example 217] the value was 4.9 nM.
In the case of `CCCOc1ccc2[nH]nc(-c3ccnc(N4CCN(C)CC4)c3)c2c1` [Example 294], the IC50 under setting [3] stood at 17 nM.
Regarding `CN1CCCC(CN(C)c2cc(-c3n[nH]c4ccccc34)ccn2)C1` (stereo not drawn) [Example 32], the IC50 under setting [1] was 75 nM.
The same measure, in the same setting: for `C[C@@H]1C[C@@H](O)CN1c1cc(-c2n[nH]c3ccccc23)ccn1` [Example 51] the value was 33 nM.
For the compound `c1cc(-c2n[nH]c3ccc(OCC4CC4)cc23)cc(N2CCOCC2)n1` [Example 373], under setting [3], the IC50 amounted to 84 nM.
For `FC(F)(F)Oc1ccc2[nH]nc(-c3ccnc(N4CC(n5cccn5)C4)c3)c2c1` [Example 241], under setting [1], the IC50 came out at 315 nM.
For `c1ccc2c(-c3ccnc(N4CCOCC4)c3)n[nH]c2c1` [Example 1], under setting [3], the IC50 came to 16 nM.
Consider `OCCC1CN(c2cc(-c3n[nH]c4ccccc34)ccn2)CCO1` (stereo not drawn) [Example 66], for which the IC50 under setting [1] worked out at 15 nM.
As for `Cn1cc(-c2ccc3[nH]nc(-c4ccnc(N5CC(F)(F)C5)c4)c3c2)cn1` [Example 274], the IC50 under setting [3] worked out at 4.2 nM.
For `CCNc1cc(-c2n[nH]c3ccc(Nc4cccc(S(C)(=O)=O)c4)cc23)ccn1` [Example 111], the IC50 under setting [1] is 35 nM.
Consider `CC(C)Oc1ccc2[nH]nc(-c3ccnc(NS(=O)(=O)c4ccc(C(C)(C)C#N)cc4)c3)c2c1` [Example 264], for which the IC50 under setting [3] was 68.8 nM.
For `COc1ccnc(F)c1-c1ccc2[nH]nc(-c3ccnc(N4CCOCC4)c3)c2c1` [Example 117], the IC50 under setting [3] turned out to be 3.4 nM.
The same measure, in the same setting: for `Cn1cnc(-c2ccc3[nH]nc(-c4ccnc(N5CCOCC5)c4)c3c2)c1` [Example 343] the value was 4.9 nM; for `OCc1ccc2[nH]nc(-c3ccnc(N4CCOCC4)c3)c2c1` [Example 86], 16.4 nM.
Regarding `c1ccc(C2CCN(c3cc(-c4n[nH]c5ccccc45)ccn3)CC2)nc1` [Example 22], under setting [1], the IC50 was found to be 20 nM.
Take `CC(C)Oc1ccc2[nH]nc(-c3ccnc(N4CCN(C5CC5)CC4)c3)c2c1` [Example 210]: the IC50 under setting [2] worked out at 7.4 nM.
For `COCCN(C)c1cc(-c2n[nH]c3ccc(OC(C)C)cc23)ccn1` [Example 136], the IC50 under setting [1] worked out at 4.9 nM.
With `CN(C)c1cc(-c2n[nH]c3ccccc23)ccn1` [Example 30], under setting [1], the IC50 was 33 nM.
On the same count and under the same terms, the result for `CN(C)c1cc(-c2n[nH]c3ccc(Nc4cccc(S(C)(=O)=O)c4)cc23)ccn1` [Example 109] reads 34 nM; that for `CCOc1ccc2[nH]nc(-c3ccnc(N4C[C@@H]5C[C@H]4CO5)c3)c2c1` [Example 221], 20.9 nM; that for `Cc1cc(CC(=O)Nc2cc(-c3n[nH]c4ccc(OC(C)C)cc34)ccn2)on1` [Example 155], 13.4 nM.
Still for that read-out and setting: for `OCC1CN(c2cc(-c3n[nH]c4ccccc34)ccn2)CCCO1` (stereo not drawn) [Example 37] the value was 64 nM.
Take `CC(C)Oc1ccc2[nH]nc(-c3ccnc(N4CCOC4=O)c3)c2c1` [Example 303]: the IC50 under setting [3] was found to be 16 nM.
With `Cc1cc(C(=O)Nc2cc(-c3n[nH]c4ccc(OC(C)C)cc34)ccn2)n(C)n1` [Example 141], under setting [1], the IC50 amounted to 51.4 nM.
On to `FC(F)(F)Oc1ccc2[nH]nc(-c3ccnc(N4CCN(c5ncccn5)CC4)c3)c2c1` [Example 235], for which the IC50 under setting [1] worked out at 476 nM.
Consider `N#Cc1ccc2c(-c3ccnc(N4CCOCC4)c3)n[nH]c2c1` [Example 106], for which, under setting [3], the IC50 turned out to be 49 nM.
Same read-out and setting: the result for `COc1cnc(-c2ccc3[nH]nc(-c4ccnc(N5CCOCC5)c4)c3c2)nc1` [Example 339] reads 22 nM; that for `CCCOc1ccc2[nH]nc(-c3ccnc(N4CCCCC4)c3)c2c1` [Example 300], 31 nM; that for `Cc1cnc(-c2ccc3[nH]nc(-c4ccnc(N5CCOCC5)c4)c3c2)nc1` [Example 338], 8.9 nM.
In the case of `CC(C)Oc1ccc2[nH]nc(-c3ccnc(NC(=O)C4CCN(c5ccccn5)C4)c3)c2c1` (stereo not drawn) [Example 167], the IC50 under setting [1] is 78 nM.
Consider `Oc1ccncc1-c1ccc2[nH]nc(-c3ccnc(N4CCOCC4)c3)c2c1` [Example 118], for which the IC50 under setting [3] was 70 nM.
As for `CC(C)Oc1ccc2[nH]nc(-c3ccnc(NC(=O)c4ccccc4-n4cncn4)c3)c2c1` [Example 146], the IC50 under setting [1] came to 36.8 nM.
With `CN1CCN(c2cc(-c3n[nH]c4ccccc34)ccn2)CC1=O` [Example 46], the IC50 under setting [1] turned out to be 21 nM.
Still for that read-out and setting: the result for `O=C1CN(c2cc(-c3n[nH]c4ccccc34)ccn2)CCCN1` [Example 48] reads 54 nM.
In the case of `CC(C)Oc1ccc2[nH]nc(-c3ccnc(NC(=O)C4CC(F)(F)C4)c3)c2c1` [Example 166], under setting [1], the IC50 came out at 73.5 nM.
`CC(C)Oc1ccc2[nH]nc(-c3ccnc(NS(=O)(=O)c4ccc5c(c4)N(C)C(=O)CO5)c3)c2c1` [Example 262]: the IC50 under setting [3] amounted to 43.4 nM.
As to `CN(Cc1ccc2[nH]nc(-c3ccnc(N4CCOCC4)c3)c2c1)Cc1ccco1` [Example 94], the IC50 under setting [1] is 13 nM.
As to `c1ccc2c(-c3ccnc(N4CCC5(CC4)OCCO5)c3)n[nH]c2c1` [Example 15, 8-[4-(1H-indazol-3-yl)pyridin-2-yl]-1,4-dioxa-8-azaspiro[4.5]decane], the IC50 under setting [1] amounted to 36 nM.
Turning to `CC(C)Oc1ccc2[nH]nc(-c3ccnc(NC(=O)C4CCCC4)c3)c2c1` [Example 156], the IC50 under setting [1] came to 53.1 nM.
`CC(C)Oc1ccc2[nH]nc(-c3ccnc(NS(=O)(=O)Cc4ccccn4)c3)c2c1` [Example 261]: the IC50 under setting [3] was determined as 124 nM.
Turning to `CC(C)Oc1ccc2[nH]nc(-c3ccnc(N4CCCC4)c3)c2c1` [Example 201], the IC50 under setting [2] worked out at 5 nM.
With `CC(C)Oc1ccc2[nH]nc(-c3ccnc(N4CCC(CCN)CC4)c3)c2c1` [Example 382], under setting [3], the IC50 stood at 6.8 nM.
